Values quoted from earlier work as cited in patent US11529445B2, “Methods and apparatus for kidney dialysis and extracorporeal detoxification” (HIBAR Microsciences LLC, priority 2013, dated 2022).

System: Connexin-43
Conditions: cell culture models; concentrations commonly found among ESRD patients

For `Cc1ccc(O)cc1` [p-cresol], the “degradation of Connexin-43 within cardiac gap junctions” value is listed as “dose-dependent degradation of Connexin-43”.
